Reference: PubChem BioAssay (NCI)
Values joined by “and” are separate entries in the source; they are usually repeats but may differ in a detail not shown here. Equal entries are not always repeated.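 Grown in 96-well plates, cells were treated for 48 hours with each compound at five concentrations. Insufficient inhibition: endpoint recorded as highest concentration tested. GI50 = concentration required for 50% inhibition of growth. The concentration for full growth arrest is given as TGI.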

Legend:
Assay in all cases: DTP human tumour cell line panel, 48 h
COLO 205 colon = system: COLO 205 colon
HCC-2998 colon = system: HCC-2998 colon
HCT-116 colon = system: HCT-116 colon
HOP-92 NSCLC = system: HOP-92 NSCLC
HT29 colon = system: HT29 colon
IGROV1 ovarian = system: IGROV1 ovarian
OVCAR-5 ovarian = system: OVCAR-5 ovarian
SF-268 CNS = system: SF-268 CNS
SNB-19 CNS = system: SNB-19 CNS
SR leukemia = system: SR leukemia

SMILES: CC(=O)NN1C(=O)C(Cc2ccccc2)c2ccccc21 (configuration not stated)
- TGI (COLO 205 colon): > 100 µM
- TGI (HCC-2998 colon): > 100 µM
- TGI (HCT-116 colon): > 100 µM
- TGI (HOP-92 NSCLC): > 100 µM
- TGI (HT29 colon): > 100 µM
- TGI (IGROV1 ovarian): > 100 µM
- TGI (OVCAR-5 ovarian): > 100 µM
- TGI (SF-268 CNS): > 100 µM
- TGI (SNB-19 CNS): > 100 µM

SMILES: O=C(O)c1ccc(SSc2ccc(C(=O)O)cn2)nc1
- TGI (COLO 205 colon): > 100 µM
- TGI (HCT-116 colon): > 100 µM
- TGI (HOP-92 NSCLC): > 100 µM
- TGI (HT29 colon): > 100 µM
- TGI (IGROV1 ovarian): > 100 µM
- TGI (OVCAR-5 ovarian): > 100 µM
- TGI (SF-268 CNS): > 100 µM
- TGI (SNB-19 CNS): > 100 µM
- TGI (SR leukemia): > 100 µM

SMILES: CCC[CH2][Sn]1([CH2]CCC)[S]CC[N]1S(=O)(=O)c1ccc(C)cc1
- GI50 (COLO 205 colon): 1.63 µM
- TGI (COLO 205 colon): 3.09 µM
- GI50 (HCC-2998 colon): 1.95 µM
- TGI (HCC-2998 colon): 3.44 µM
- GI50 (HCT-116 colon): 1.42 µM
- TGI (HCT-116 colon): 2.81 µM
- GI50 (HOP-92 NSCLC): 1.19 µM
- TGI (HOP-92 NSCLC): 2.46 µM
- GI50 (HT29 colon): 2.04 µM
- TGI (HT29 colon): 3.73 µM
- GI50 (IGROV1 ovarian): 1.7 µM
- TGI (IGROV1 ovarian): 3.27 µM
- GI50 (OVCAR-5 ovarian): 2.82 µM
- TGI (OVCAR-5 ovarian): 6.12 µM
- GI50 (SF-268 CNS): 1.19 µM
- TGI (SF-268 CNS): 2.54 µM
- GI50 (SNB-19 CNS): 1.45 µM
- TGI (SNB-19 CNS): 2.75 µM

SMILES: CC1SC(c2ccc(Cl)cc2Cl)N(NC(=O)C(O)c2ccccc2)C1=O (configuration not stated)
- GI50 (COLO 205 colon): > 100 µM
- TGI (COLO 205 colon): > 100 µM
- GI50 (HCC-2998 colon): > 100 µM
- TGI (HCC-2998 colon): > 100 µM
- GI50 (HCT-116 colon): 62 µM
- TGI (HCT-116 colon): > 100 µM
- GI50 (HOP-92 NSCLC): 35.9 µM
- TGI (HOP-92 NSCLC): > 100 µM
- GI50 (HT29 colon): 41.9 µM
- TGI (HT29 colon): > 100 µM
- GI50 (IGROV1 ovarian): 22.7 µM
- TGI (IGROV1 ovarian): 76.9 µM
- GI50 (OVCAR-5 ovarian): > 100 µM
- TGI (OVCAR-5 ovarian): > 100 µM
- GI50 (SF-268 CNS): 81.3 µM
- TGI (SF-268 CNS): > 100 µM
- GI50 (SNB-19 CNS): > 100 µM
- TGI (SNB-19 CNS): > 100 µM

SMILES: COc1ccc(OC(C)C(=O)O)c2c(=O)ccccc12 (configuration not stated)
- TGI (COLO 205 colon): > 100 µM
- TGI (HCC-2998 colon): > 100 µM
- TGI (HT29 colon): > 100 µM
- TGI (IGROV1 ovarian): > 100 µM
- TGI (OVCAR-5 ovarian): > 100 µM
- TGI (SF-268 CNS): > 100 µM
- TGI (SNB-19 CNS): > 100 µM
- TGI (SR leukemia): > 100 µM

SMILES: CC(SCc1ccccc1)C(=O)O (configuration not stated)
- TGI (COLO 205 colon): > 100 µM
- TGI (HCT-116 colon): > 100 µM
- TGI (HOP-92 NSCLC): > 100 µM
- TGI (HT29 colon): > 100 µM
- TGI (IGROV1 ovarian): > 100 µM
- TGI (OVCAR-5 ovarian): > 100 µM
- TGI (SF-268 CNS): > 100 µM
- TGI (SNB-19 CNS): > 100 µM
- TGI (SR leukemia): > 100 µM

SMILES: NC(=O)c1ccc(Cl)c([N+](=O)[O-])c1
- TGI (COLO 205 colon): > 100 µM
- TGI (HCC-2998 colon): > 100 µM
- TGI (HCT-116 colon): > 100 µM
- TGI (HOP-92 NSCLC): > 100 µM
- TGI (HT29 colon): > 100 µM
- TGI (IGROV1 ovarian): > 100 µM
- TGI (OVCAR-5 ovarian): > 100 µM
- TGI (SF-268 CNS): > 100 µM
- TGI (SNB-19 CNS): > 100 µM

SMILES: CC1(C)CCC[C@]2(C)c3ccccc3C(=O)CC12 (some centres not stated)
- GI50 (COLO 205 colon): 27.4 µM
- TGI (COLO 205 colon): > 100 µM
- GI50 (HCC-2998 colon): 20.8 µM
- TGI (HCC-2998 colon): 81.4 µM
- GI50 (HCT-116 colon): 35 µM
- TGI (HCT-116 colon): > 100 µM
- GI50 (HOP-92 NSCLC): 60.8 µM
- TGI (HOP-92 NSCLC): > 100 µM
- GI50 (HT29 colon): 43 µM
- TGI (HT29 colon): > 100 µM
- GI50 (IGROV1 ovarian): 45.3 µM
- TGI (IGROV1 ovarian): > 100 µM
- GI50 (OVCAR-5 ovarian): > 100 µM
- TGI (OVCAR-5 ovarian): > 100 µM
- GI50 (SF-268 CNS): 34.3 µM
- TGI (SF-268 CNS): > 100 µM
- GI50 (SNB-19 CNS): 49.6 µM
- TGI (SNB-19 CNS): > 100 µM

SMILES: O=c1/c(=N\Nc2ccccc2)c2cccc3ccc4cccc1c4c32
- TGI (COLO 205 colon): > 100 µM
- TGI (HCT-116 colon): > 100 µM
- TGI (HOP-92 NSCLC): > 100 µM
- TGI (HT29 colon): > 100 µM
- TGI (IGROV1 ovarian): > 100 µM
- TGI (OVCAR-5 ovarian): > 100 µM
- TGI (SF-268 CNS): > 100 µM
- TGI (SNB-19 CNS): > 100 µM
- TGI (SR leukemia): > 100 µM

SMILES: COC(=O)[C@H](Cc1cn(C)cn1)NC(=O)[C@H](Cc1ccccc1)NC(=O)Nc1cc(C(F)(F)F)cc(C(F)(F)F)c1
- GI50 (COLO 205 colon): 15.3 µM
- TGI (COLO 205 colon): 31.6 µM
- GI50 (HCC-2998 colon): 3.86 µM
- GI50 (HCT-116 colon): 3.1 µM and 3.54 µM
- TGI (HCT-116 colon): 10.9 µM
- GI50 (HT29 colon): 4.97 µM and 14.9 µM
- TGI (HT29 colon): 29.8 µM
- GI50 (IGROV1 ovarian): 18.5 µM
- TGI (IGROV1 ovarian): 37.2 µM
- GI50 (OVCAR-5 ovarian): 16.8 µM
- TGI (OVCAR-5 ovarian): 32.5 µM
- GI50 (SF-268 CNS): 4.26 µM and 10.2 µM
- TGI (SF-268 CNS): 23.8 µM
- GI50 (SNB-19 CNS): 14.2 µM
- TGI (SNB-19 CNS): 28.3 µM
- GI50 (SR leukemia): 2.54 µM and 2.21 µM
- TGI (SR leukemia): 6.07 µM and 5.05 µM

SMILES: COc1cc(/C=C2\CCCC3=C2N=C2SC(C)=NN2C3c2cc(OC)c(OC)c(OC)c2)cc(OC)c1OC (configuration not stated)
- GI50 (COLO 205 colon): 0.429 µM
- TGI (COLO 205 colon): > 100 µM
- GI50 (HOP-92 NSCLC): > 100 µM
- TGI (HOP-92 NSCLC): > 100 µM
- GI50 (SR leukemia): 0.347 µM
- TGI (SR leukemia): > 100 µM

SMILES: CC(=O)[CH-]C(=O)c1ccccc1.CC(=O)[CH-]C(=O)c1ccccc1.[O-]c1ccc2c(c1)OCO2.[O-]c1ccc2c(c1)OCO2.[Ti+4]
- GI50 (COLO 205 colon): 32 µM
- TGI (COLO 205 colon): > 100 µM
- GI50 (HCC-2998 colon): 24.6 µM
- TGI (HCC-2998 colon): 61.6 µM
- GI50 (HCT-116 colon): 37 µM
- TGI (HCT-116 colon): > 100 µM
- GI50 (HOP-92 NSCLC): 21.1 µM
- TGI (HOP-92 NSCLC): > 100 µM
- GI50 (HT29 colon): 26.8 µM
- TGI (HT29 colon): > 100 µM
- GI50 (IGROV1 ovarian): 34.5 µM
- TGI (IGROV1 ovarian): > 100 µM
- GI50 (OVCAR-5 ovarian): 31.9 µM
- TGI (OVCAR-5 ovarian): > 100 µM
- GI50 (SF-268 CNS): 33.6 µM
- TGI (SF-268 CNS): > 100 µM
- GI50 (SNB-19 CNS): 20.8 µM
- TGI (SNB-19 CNS): 69.7 µM

SMILES: CO[C@@]1(c2ccccc2)O[C@H]2OCCC2[C@H]1c1ccc(Cl)cc1 (some centres not stated)
- TGI (COLO 205 colon): 42.2 µM
- TGI (HCC-2998 colon): > 100 µM
- TGI (HCT-116 colon): > 100 µM
- TGI (HT29 colon): 50.6 µM
- TGI (IGROV1 ovarian): > 100 µM
- TGI (OVCAR-5 ovarian): > 100 µM
- TGI (SF-268 CNS): > 100 µM
- TGI (SNB-19 CNS): > 100 µM
- TGI (SR leukemia): > 100 µM
